This is an account of results in patent publication US20230373934A1, “ANDROGEN RECEPTOR MODULATORS AND METHODS FOR THEIR USE” (ESSA Pharma, Inc., priority 2022, published 2023).

The assay concerns the target T1, androgen receptor (AR) (Homo sapiens, UniProt P10275, T878A).
T1 construct: endogenous in cells; host or cells: LNCaP
T1 sequence (P10275 1-920 T878A): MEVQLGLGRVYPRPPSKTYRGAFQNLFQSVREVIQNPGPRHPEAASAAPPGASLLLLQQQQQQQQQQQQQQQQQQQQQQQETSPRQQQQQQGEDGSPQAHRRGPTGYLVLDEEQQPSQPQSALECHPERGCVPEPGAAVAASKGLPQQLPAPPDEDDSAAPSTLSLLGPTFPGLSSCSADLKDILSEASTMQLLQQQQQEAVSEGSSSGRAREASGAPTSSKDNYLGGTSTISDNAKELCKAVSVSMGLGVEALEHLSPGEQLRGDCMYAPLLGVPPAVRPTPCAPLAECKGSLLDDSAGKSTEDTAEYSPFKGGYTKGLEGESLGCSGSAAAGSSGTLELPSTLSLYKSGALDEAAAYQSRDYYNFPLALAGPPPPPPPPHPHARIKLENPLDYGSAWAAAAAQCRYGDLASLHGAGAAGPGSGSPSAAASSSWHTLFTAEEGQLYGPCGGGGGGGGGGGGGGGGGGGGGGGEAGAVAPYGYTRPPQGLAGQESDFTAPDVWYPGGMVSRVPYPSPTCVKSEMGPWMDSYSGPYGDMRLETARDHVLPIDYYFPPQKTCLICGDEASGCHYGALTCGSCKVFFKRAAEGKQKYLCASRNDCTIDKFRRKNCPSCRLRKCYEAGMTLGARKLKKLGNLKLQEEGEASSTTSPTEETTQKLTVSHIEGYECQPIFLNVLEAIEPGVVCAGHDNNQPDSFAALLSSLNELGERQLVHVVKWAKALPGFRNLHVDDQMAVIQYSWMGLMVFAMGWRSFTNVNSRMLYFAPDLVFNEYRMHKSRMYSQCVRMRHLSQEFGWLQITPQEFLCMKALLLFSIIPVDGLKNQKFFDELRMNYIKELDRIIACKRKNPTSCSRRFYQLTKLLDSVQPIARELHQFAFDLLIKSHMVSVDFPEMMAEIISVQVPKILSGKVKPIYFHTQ
The assay is described as follows: Androgen-induced PSA-luciferase assay, Luciferase Assay A (LNCaP transiently transfected with PSA (6.1 kb)-luciferase reporter). Format: cell-based. The note with it: LNCaP cells, 1 h pretreatment, R1881 (1 nM) 24 h, read-out: PSA-Luc IC50 Range. As for the experimental part: The PSA (6.1 kb)-luciferase reporter contains functional AREs (androgen response elements) to which AR binds in response to androgen to induce luciferase activity. LNCaP cells were transiently transfected with the PSA (6.1 kb)-luciferase reporter for 24 h, and then pretreated with vehicle (DMSO) or indicated concentration of representative compounds for one hour prior to the addition of synthetic androgen, R1881 (1 nM). After 24 h of incubation with R1881, the cells were harvested, and relative luciferase activities were determined (FIG. 1). To determine the IC50, treatments were normalized to vehicle control activity induced by R1881 (Table 2).
Luciferase Assay A: Cells were lysed using Passive Lysis Buffer (Promega) and then collected into V-bottom 96-well tissue culture plates. Lysates were centrifuged at 4° C. for 5 minutes at 3000 rpm. To measure luminescence of LNCaP cell lysates the Firefly Luciferase Assay System (Promega) was employed, according to manufacturer's protocol. Relative luminescence units (RLU) in cell lysates were detected for 10 seconds using Promega GloMax-Multi Detection Luminometer (Promega). Values were normalized to protein content. GraphPad Prism graphing software was used to calculate IC50 values. Luciferase Assay A was run for all compounds in Table 2 unless otherwise noted below.
Statistical analyses were performed using GraphPad Prism (Version 6.01 for Windows; La Jolla, CA, USA). Comparisons between treatment and control groups were compared using Two-Way ANOVA with post-hoc Dunnett's and Tukey's tests. Differences were considered statistically significant at P values less than 0.05.
(In a reporter assay the amount or activity of a reporter protein is the signal.)
Regarding `CS(=O)(=O)Nc1nccc2cc(-c3ccc(Oc4cc(Cl)c(OCCCl)c(C#N)c4)cc3)ccc12` [Compound A65], the IC50 (usually the point on the concentration scale where inhibition reaches its midpoint) is over 2000 nM.

For `CS(=O)(=O)Nc1nccc2nc(-c3ccc(Oc4cc(Cl)c(OCCCl)c(C#N)c4)cc3)ccc12` [Compound A66], the IC50 is over 2000 nM.

Turning to `COc1c(Cl)cc(N(CC(F)(F)F)c2ccc(-c3ccc4nc(NS(C)(=O)=O)cnc4c3)cc2)cc1C#N` [Compound A67], the IC50 was in the range of 500 to 2000 nM.

As to `CS(=O)(=O)NC1CN(c2ncc(-c3ccc(N(CC(F)(F)F)c4cc(Cl)c(OCCCl)c(C#N)c4)cc3)cn2)C1` [Compound A68], the IC50 was under 500 nM.

For `CC(C)(c1ccc(-c2ccc(N3CC(NS(C)(=O)=O)C3)nn2)cc1)c1cc(Cl)c(OCCCl)c(C#N)c1` [Compound A69], the IC50 lay in the range of 500 to 2000 nM.

On to `CS(=O)(=O)NC1CN(c2ncc(-c3ccc(Oc4cc(Cl)c(OCCCl)c(C#N)c4)cc3)cn2)C1` [Compound A70], for which the IC50 was over 2000 nM.

With `CC(C)(c1ccc(OCC2CC3(C2)CN(S(C)(=O)=O)C3)cc1)c1cc(Cl)c(OCCCl)c(C#N)c1` [Compound A71], the IC50 was 500 to 2000 nM.

For the compound `CC(C)(c1ccc(OC[C@H]2C[C@@H](CNS(C)(=O)=O)C2)cc1)c1cc(Cl)c(OCCCl)c(C#N)c1` [Compound A74], the IC50 lay within 500 to 2000 nM.

`CC(C)(c1ccc(-c2cnc(NC3CN(S(C)(=O)=O)C3)nc2)cc1)c1cc(Cl)c(OCCCl)c(C#N)c1` [Compound A76]: the IC50 is 500 to 2000 nM.

On to `CC(C)(c1ccc(-c2cn([C@H]3C[C@H](NS(C)(=O)=O)C3)nn2)cc1)c1cc(Cl)c(OCCCl)c(C#N)c1` [Compound A77], for which the IC50 was over 2000 nM.

In the case of `CS(=O)(=O)N[C@H]1C[C@H](n2cc(-c3ccc(Oc4cc(Cl)c(OCCCl)c(C#N)c4)cc3)cn2)C1` [Compound A79], the IC50 was over 2000 nM.

For `CC(C)(c1ccc(Oc2ccnc(CNS(C)(=O)=O)n2)cc1)c1cc(Cl)c(OCCCl)c(C#N)c1` [Compound A85], the IC50 is 500 to 2000 nM.

Consider `CC(C)(c1ccc(Oc2cnc(CNS(C)(=O)=O)nc2)cc1)c1cc(Cl)c(OCCCl)c(C#N)c1` [Compound A86], for which the IC50 is 500 to 2000 nM.

For `CC(C)(c1ccc(Oc2ccnc(N3CC(NS(C)(=O)=O)C3)n2)cc1)c1cc(Cl)c(OCCCl)c(C#N)c1` [Compound A87], the IC50 lay within 500 to 2000 nM.

Take `CS(=O)(=O)Nc1cnc2cc(N3CCC(Oc4cc(Cl)c(OCCCl)c(C#N)c4)CC3)ccc2n1` [Compound A88]: the IC50 was over 2000 nM.

In the case of `CS(=O)(=O)Nc1cnc2cc(C3CCN(Cc4cc(Cl)c(OCCCl)c(C#N)c4)CC3)ccc2n1` [Compound A93], the IC50 is over 2000 nM.

`CC(C)(c1ccc(-c2cnc(N3CC(CNS(C)(=O)=O)C3)nc2)cc1)c1cc(Cl)c(OCCCl)c(C#N)c1` [Compound A95]: the IC50 lay in the range of 500 to 2000 nM.

For `CS(=O)(=O)NCC1CN(c2ncc(-c3ccc(Oc4cc(Cl)c(OCCCl)c(C#N)c4)cc3)cn2)C1` [Compound A96], the IC50 is under 500 nM.

As to `CS(=O)(=O)NC12CC(n3cc(-c4ccc(Oc5cc(Cl)c(OCCCl)c(C#N)c5)cc4)cn3)(C1)C2` [Compound A99], the IC50 was in the range of 500 to 2000 nM.

On to `CC(C)(c1ccc(OCc2ccnc(NS(=O)(=O)c3cccs3)n2)cc1)c1cc(Cl)c(OCCCl)c(C#N)c1` [Compound A100], for which the IC50 fell in the range of 500 to 2000 nM.

On to `CC(C)(c1ccc(OCc2ccnc(NS(=O)(=O)c3ccsc3)n2)cc1)c1cc(Cl)c(OCCCl)c(C#N)c1` [Compound A101], for which the IC50 fell in the range of 500 to 2000 nM.

For the compound `C=COc1c(Cl)cc(C(C)(C)c2ccc(COc3ccnc(NS(C)(=O)=O)n3)cc2)cc1C#N` [Compound A102], the IC50 is over 2000 nM.

`CC(C)(c1ccc(OCc2ccnc(NS(=O)(=O)c3ccoc3)n2)cc1)c1cc(Cl)c(OCCCl)c(C#N)c1` [Compound A103]: the IC50 lay in the range of 500 to 2000 nM.

With `CC(C)(c1ccc(OCc2ccnc(-n3cc(S(N)(=O)=O)cn3)n2)cc1)c1cc(Cl)c(OCCCl)c(C#N)c1` [Compound A104], the IC50 is over 2000 nM.

For the compound `Cn1ccc(S(=O)(=O)Nc2nccc(COc3ccc(C(C)(C)c4cc(Cl)c(OCCCl)c(C#N)c4)cc3)n2)n1` [Compound A105], the IC50 was in the range of 500 to 2000 nM.

Take `CC(C)(c1ccc(OCc2ccnc(-n3cnc(S(N)(=O)=O)c3)n2)cc1)c1cc(Cl)c(OCCCl)c(C#N)c1` [Compound A106]: the IC50 was in the range of 500 to 2000 nM.

`Cn1cnc(S(=O)(=O)Nc2nccc(COc3ccc(C(C)(C)c4cc(Cl)c(OCCCl)c(C#N)c4)cc3)n2)c1` [Compound A107]: the IC50 is over 2000 nM.

With `CC(C)(c1ccc(OCc2ccnc(-n3cnc(S(N)(=O)=O)n3)n2)cc1)c1cc(Cl)c(OCCCl)c(C#N)c1` [Compound A108], the half-inhibitory concentration (IC50) lay within 500 to 2000 nM.

As for `CC(C)(c1ccc(OCc2ccnc(NS(=O)(=O)c3cccnc3)n2)cc1)c1cc(Cl)c(OCCCl)c(C#N)c1` [Compound A109], the IC50 was over 2000 nM.

As to `CC(C)(c1ccc(OCc2ccnc(NS(=O)(=O)c3ccccn3)n2)cc1)c1cc(Cl)c(OCCCl)c(C#N)c1` [Compound A110], the IC50 was 500 to 2000 nM.

With `CC(C)(c1cc(Cl)c(OCCCl)c(C#N)c1)c1ccc(OCc2ccnc(NS(C)(=O)=O)n2)c(CN)c1` [Compound A111], the IC50 was over 2000 nM.

As to `CC(C)(C)OC(=O)N1CCN(Cc2cc(C(C)(C)c3cc(Cl)c(OCCCl)c(C#N)c3)ccc2OCc2ccnc(NS(C)(=O)=O)n2)CC1` [Compound A112], the IC50 was in the range of 500 to 2000 nM.

Regarding `CC(C)(c1cc(Cl)c(OCCCl)c(C#N)c1)c1ccc(OCc2ccnc(NS(C)(=O)=O)n2)c(CN2CCNCC2)c1` [Compound A113], the IC50 was over 2000 nM.

Take `CC(C)(c1ccc(OCc2cc(C3CCNCC3)nc(NS(C)(=O)=O)n2)cc1)c1cc(Cl)c(OCCCl)c(C#N)c1` [Compound A114]: the IC50 is over 2000 nM.

As to `CC(C)(C)OC(=O)N1CCC(c2cc(COc3ccc(C(C)(C)c4cc(Cl)c(OCCCl)c(C#N)c4)cc3)nc(NS(C)(=O)=O)n2)CC1` [Compound A115], the IC50 was in the range of 500 to 2000 nM.

For the compound `CC(C)(c1ccc(OCc2cc(N3CCNCC3)nc(NS(C)(=O)=O)n2)cc1)c1cc(Cl)c(OCCCl)c(C#N)c1` [Compound A116], the IC50 was over 2000 nM.

In the case of `CC(C)(C)OC(=O)N1CCN(c2cc(COc3ccc(C(C)(C)c4cc(Cl)c(OCCCl)c(C#N)c4)cc3)nc(NS(C)(=O)=O)n2)CC1` [Compound A117], the IC50 was over 2000 nM.

`CC(C)(c1ccc(OCc2cnc(NS(C)(=O)=O)nc2N)cc1)c1cc(Cl)c(OCCCl)c(C#N)c1` [Compound A118, N-(4-amino-5-((4-(2-(3-chloro-4-(2-chloroethoxy)-5-cyanophenyl)propan-2-yl)phenoxy)methyl)pyrimidin-2-yl)methanesulfonamide]: the IC50 is under 500 nM.

Regarding `CC(C)(c1cc(Cl)c(OCCCl)c(C#N)c1)c1ccc(OCc2ccnc(NS(C)(=O)=O)n2)c(CO)c1` [Compound A119], the IC50 was over 2000 nM.

As to `CS(=O)(=O)N1CCc2cc(-c3ccc(Oc4cc(Cl)c(OCCCl)c(C#N)c4)cc3)ccc2C1` [Compound A120], the IC50 was over 2000 nM.

As for `CC(C)(c1ccc(OCc2ccnc(NS(C)(=O)=O)n2)cc1)c1cc(Cl)c(OC2CC(F)(F)C2)c(C#N)c1` [Compound A121], the IC50 fell in the range of 500 to 2000 nM.

As to `CS(=O)(=O)Nc1nccc(COc2ccc(Oc3cc(Cl)c(OCCCl)c(C#N)c3)cc2)n1` [Compound A122], the IC50 is over 2000 nM.

As to `CS(=O)(=O)Nc1cnc2cc(-c3ncc(Oc4cc(Cl)c(OCCCl)c(C#N)c4)cn3)ccc2n1` [Compound A123], the IC50 was over 2000 nM.

For `CC(C)(c1ccc(-c2cnc3cc(NS(C)(=O)=O)ccc3n2)cc1)c1cc(Cl)c(OCCCl)c(C#N)c1` [Compound A124], the IC50 lay in the range of 500 to 2000 nM.

Consider `CC(C)(c1ccc(OCc2ccc(F)c(NS(C)(=O)=O)n2)cc1)c1cc(Cl)c(OCCCl)c(C#N)c1` [Compound A125], for which the IC50 lay in the range of 500 to 2000 nM.
